Results taken from patent publication US20160137639A1, “TRIAZOLE-ISOXAZOLE COMPOUND AND MEDICAL USE THEREOF” (JAPAN TOBACCO INC., priority 2012, published 2016).
Like-named read-outs stand apart in the source and are kept apart here.

Experiments:
human RORγ = biological target: T1, human RORγ (Homo sapiens, UniProt P51449); assay: Luciferase reporter gene assay of inhibitory effect against RORγ transcriptional activity (GAL4-hRORγ plasmid in CHO cells); format: cell-based
T1 construct: human, NM_005060.3 and from Ser253 to Lys518; expressed in transfected cells; host or cells: CHO cells (transient co-transfection with pG5-Luc reporter)
T1 sequence (P51449 253-518): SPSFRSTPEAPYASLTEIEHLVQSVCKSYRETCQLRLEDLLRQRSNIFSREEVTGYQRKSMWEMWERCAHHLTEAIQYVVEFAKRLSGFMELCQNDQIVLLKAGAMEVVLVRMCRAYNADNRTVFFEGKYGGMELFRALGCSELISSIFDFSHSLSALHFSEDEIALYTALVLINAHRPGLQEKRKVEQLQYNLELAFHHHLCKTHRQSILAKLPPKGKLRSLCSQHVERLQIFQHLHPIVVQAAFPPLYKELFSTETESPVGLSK

mouse RORγ = biological target: T2, mouse RORγ (Mus musculus, UniProt P51450); assay: Luciferase reporter gene assay of inhibitory effect against RORγ transcriptional activity (GAL4-mRORγ plasmid in CHO cells); format: cell-based
T2 construct: mouse, NM_011281.2 and from Ile251 to Lys516; expressed in transfected cells; host or cells: CHO cells (transient co-transfection with pG5-Luc reporter)
T2 sequence (P51450 251-516): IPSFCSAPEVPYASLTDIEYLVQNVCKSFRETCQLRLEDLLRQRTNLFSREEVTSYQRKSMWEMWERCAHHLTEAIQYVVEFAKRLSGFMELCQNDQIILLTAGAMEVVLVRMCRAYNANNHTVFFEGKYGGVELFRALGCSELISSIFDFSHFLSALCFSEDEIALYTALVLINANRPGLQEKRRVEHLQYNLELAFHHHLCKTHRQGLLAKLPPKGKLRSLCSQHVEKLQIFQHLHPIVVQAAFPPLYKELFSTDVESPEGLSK
In short: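 CHO cells transiently co-transfected with GAL4-mouse RORγ LBD (Ile251–Lys516) and GAL4-dependent luciferase reporter; eight compound concentrations, 0.1% DMSO, 2 days at 37 °C. Luminescence as %-of-vehicle control; EC50 by curve fit, cytotoxic concentrations excluded.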

| SMILES | EC50 (human RORγ; read-out: LUC EC50 (μM) hRORg) | EC50 (mouse RORγ; read-out: LUC EC50 (μM) mRORg) | EC50 (human RORγ; read-out: LUC EC50 hRORg) | EC50 (mouse RORγ; read-out: LUC EC50 mRORg) |
| --- | --- | --- | --- | --- |
| CCn1c(CCC(=O)NCc2ccccc2)nnc1CCC1CCCCC1 [Example F-45] | > 3 µM | > 3 µM | – | – |
| Cc1ccc(NC(=O)[C@@H]2CC(C)(O)C[C@H]2c2nnc([C@H]3C[C@@H](CC(C)C)C3)n2C2CC2)c(C)c1 (single isomer, unassigned) [Example F-563] | – | – | < 3 µM | < 3 µM |
| Cc1ccc(NC(=O)C[C@H](CCC(=O)O)c2nnn([C@H]3C[C@@H](CC(C)(C)C(C)C)C3)c2C2CC2)c(F)c1 [Example F-706] | – | – | < 3 µM | < 3 µM |
| Cc1ccc(NC(=O)C[C@@H](c2nnc(CCCC(C)(C)C)n2C2CC2)N(C)C(=O)OCc2ccccc2)c(C)c1 [Example F-352] | > 3 µM | > 3 µM | – | – |
| Cc1cc(Cl)ccc1NC(=O)C[C@H](CC(C)C)c1nnc(-c2cc(CC(C)(C)C)on2)n1C1CC1 [Example F-626] | – | – | < 3 µM | < 3 µM |
| Cc1c(Cl)cccc1NC(=O)CCc1nnc(COCc2ccccc2)n1C1CC1 [Example F-166] | > 3 µM | < 3 µM | – | – |
| COC(=O)C(C)(C)CCc1nnc(CCC(=O)Nc2cccc(Cl)c2C)n1C1CC1 [Example F-210] | < 3 µM | < 3 µM | – | – |
| Cc1ccc(NC(=O)C[C@H](CCC(=O)O)c2noc(-c3cnc(CC(C)C)s3)c2C2CC2)c(Cl)c1 [Example E-41, Sodium (S)-5-(2-chloro-4-methyl-phenylcarbamoyl)-4-[4-cyclopropyl-5-(2-isobutyl-thiazol-5-yl)-isoxazol-3-yl]-pentanoate] | < 3 µM | < 3 µM | – | – |
| CC(=O)N1C[C@H](C(=O)Nc2ccc(Cl)cc2C)[C@@H](c2nnc([C@H]3C[C@@H](CC(C)(C)F)C3)n2C2CC2)C1 [Example F-611] | – | – | < 3 µM | < 3 µM |
| Cc1ccc(NC(=O)CCc2nnc(-c3ccc(OC(C)C)cc3)n2C2CC2)c(C)c1 [Example F-441] | > 3 µM | < 3 µM | – | – |
| Cc1cc(Cl)ccc1NC(=O)C[C@H](CCO)c1nnc(-c2cc(CC(C)(C)C)on2)n1C1CC1 [Example F-608] | – | – | < 3 µM | < 3 µM |
| Cc1ccc(NC(=O)C[C@H](CCCO)c2noc([C@H]3C[C@@H](CC(C)(C)C)C3)c2C2CC2)c(Cl)c1 [Example F-672] | – | – | < 3 µM | < 3 µM |
| Cc1ccc(O)cc1NC(=O)CCc1nnc(CCC(C)C)n1C1CC1 [Example F-192] | > 3 µM | > 3 µM | – | – |
| Cc1ccc(NC(=O)[C@H]2CN(C)CC[C@@H]2c2nnc(CCCC(C)(C)C)n2C2CC2)c(C)c1 (racemic) [Example F-394] | < 3 µM | < 3 µM | – | – |
| Cc1cnc(NC(=O)C[C@H](CCC(=O)O)c2noc([C@H]3C[C@@H](CC(C)(C)C)C3)c2C2CC2)c(C)c1 [Example F-681] | – | – | < 3 µM | < 3 µM |
| CCn1c(CCC(=O)Nc2ccccc2)nnc1C1Cc2ccccc2C1 [Example F-23] | > 3 µM | > 3 µM | – | – |
| C=CCC(CC(=O)Nc1ccc(C)cc1C)c1nnc(CCCC(C)C)n1C1CC1 (racemic) [Example F-198] | < 3 µM | < 3 µM | – | – |
| CC(=O)N1C[C@H](C(=O)Nc2ccc(C)cc2C)[C@@H](c2nnc([C@H]3C[C@@H](c4ccccc4)C3)n2C2CC2)C1 (racemic) [Example F-346] | < 3 µM | < 3 µM | – | – |
| Cc1ccc(NC(=O)CCc2nnc(-c3ccc(C(C)C)cc3)n2C2CC2)c(C)c1 [Example F-320] | < 3 µM | < 3 µM | – | – |
| Cc1ccc(NC(=O)CC(CCO)c2nnc(CCC3CCCCC3)n2C2CC2)c(C)c1 (racemic) [Example F-248] | < 3 µM | < 3 µM | – | – |
| CC(=O)N1CC[C@H](c2nnc(CCCC(C)(C)C)n2C2CC2)[C@@H](C(=O)Nc2ccc(C)cc2C)C1 (racemic) [Example F-435] | < 3 µM | < 3 µM | – | – |
| COc1cc(C)c(C)cc1CNC(=O)CCc1nnc(CCC(C)C)n1C1CC1 [Example F-205] | > 3 µM | > 3 µM | – | – |
